The results in this text go back to patent publication US20240336601A1 (Chulalongkorn University, priority 2020, published 2024).

The structures appear in SMILES notation.

Experiment [1] addresses interaction between PD-1 and PD-L1 (Homo sapiens, UniProt Q9NZQ7). Description: PD-1/PD-L1 protein-protein interaction assay (ALPHA). It counts as binding. The note with it: 2 nM His-tagged human PD-L1, 0.6 nM PD-1-Fc, AlphaScreen. (Bead proximity is the source of the signal in Alpha formats.)
Another experiment addresses T1, PD-1/PD-L1 interaction (Homo sapiens, UniProt Q9NZQ7).
T1 construct: expressed in transfected cells
The experiment in a line: PD-1/PD-L1 blockage cell-based bioassay (Jurkat NFAT luciferase / CHO-PDL1 co-culture). The following applies: Jurkat NFAT cells co-cultured with CHO-PDL1 cells, 6 h, luminescence.

Chain of interaction between PD-1 and PD-L1 (Q9NZQ7 19-238 limits assumed): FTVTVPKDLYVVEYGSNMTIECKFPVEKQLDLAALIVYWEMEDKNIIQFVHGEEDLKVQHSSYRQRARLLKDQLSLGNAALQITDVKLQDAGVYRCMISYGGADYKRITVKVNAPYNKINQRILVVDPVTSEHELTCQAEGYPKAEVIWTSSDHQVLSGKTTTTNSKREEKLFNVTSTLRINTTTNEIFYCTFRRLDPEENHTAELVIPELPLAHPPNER
T1 sequence (Q9NZQ7 19-290): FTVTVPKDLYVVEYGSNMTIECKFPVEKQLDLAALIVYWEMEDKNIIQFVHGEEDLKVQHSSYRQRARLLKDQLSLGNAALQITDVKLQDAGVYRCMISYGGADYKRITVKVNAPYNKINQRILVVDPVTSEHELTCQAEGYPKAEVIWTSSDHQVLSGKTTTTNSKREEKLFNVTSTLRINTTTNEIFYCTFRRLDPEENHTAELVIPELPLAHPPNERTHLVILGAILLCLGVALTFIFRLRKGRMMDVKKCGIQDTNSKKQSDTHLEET
Description for PD-1/PD-L1 interaction: PD-1/PD-L1 Blockage Cell-Based Bioassay
Jurkat T cells expressing human PD-1 and luciferase gene reporter driven by TCR-mediated NFAT response element (Jurkat NFAT) were co-cultured with CHO-kl cells expressing human PD-L1 and surface-bound TCR activator (CHO-PDL1). […] CHO-PDL1 cells (20,000 cells/well) were seeded overnight. Compounds were added on CHO-PDL1 and incubated for 2 h at 37° C. Jurkat NFAT cells (20,000 cells/well) were diluted in RPMI assay medium (RPMI1640 with 1% FBS) and added into each well. After co-incubation for 6 h at 37° C., luminescence was determined by adding Bio-Glo™ Luciferase reagent (Promega) and measured with a luminescence plate reader. EC50 values were calculated from the four-parameter concentration-response curves.

On to `COc1cc(-c2cccc(-c3cccc4c3cnn4-c3cc(OC)c(CN4CC5(CNC(=O)C5)C4)c(OC)c3)c2Cl)cc(F)c1CN(C)C12CCC(C(=O)O)(CC1)CC2` [Example 160, 4-(((2′-chloro-3′-(1-(3,5-dimethoxy-4-((7-oxo-2,6-diazaspiro[3.4]octan-2-yl)methyl)phenyl)-1H-indazol-4-yl)-3-fluoro-5-methoxy-[1,1′-biphenyl]-4-yl)methyl)(methyl)amino)bicyclo[2.2.2]octane-1-carboxylic acid], for which the figures for the half-maximal inhibitory concentration (IC50) (in experiment [1]; against PD-1/PD-L1 interaction) were less than 1 nM and less than 200 nM, respectively.

Take `COc1cc(-n2ncc3c(-c4cccc(-c5nc6cc(CN(C)C78CCC(C(=O)O)(CC7)CC8)cc(C#N)c6o5)c4C)cccc32)cc(OC)c1CN1CC[C@@H](O)C1` [Example 157, (R)-4-(((7-cyano-2-(3-(1-(4-((3-hydroxypyrrolidin-1-yl)methyl)-3,5-dimethoxyphenyl)-1H-indazol-4-yl)-2-methylphenyl)benzo[d]oxazol-5-yl)methyl)(methyl)amino)bicyclo[2.2.2]octane-1-carboxylic acid]: the values for the IC50 (in experiment [1]; against PD-1/PD-L1 interaction) were less than 1 nM and less than 200 nM, respectively.

`COc1cc(-n2ncc3c(-c4cccc(-c5ccc(CN[C@H]6C[C@@H](O)C6)c(OC)n5)c4Cl)cccc32)cc(OC)c1CN[C@@H](C)CO` [Example 119, cis-3-(((6-(2-chloro-3-(1-(4-((((S)-1-hydroxypropan-2-yl)amino)methyl)-3,5-dimethoxyphenyl)-1H-indazol-4-yl)phenyl)-2-methoxypyridin-3-yl)methyl)amino)cyclobutanol]: the values for the IC50 (in experiment [1]; at PD-1/PD-L1 interaction) were less than 1 nM and 201 to 2000 nM, respectively.

In the case of `COc1cc(-n2ncc3c(-c4cccc(-c5ccc(CN6CC(C)(C(=O)NC7CC7)C6)c(OC)n5)c4Cl)cccc32)cc(OC)c1CNC[C@H]1C[C@@H](O)C1` [Example 95, 1-((6-(2-chloro-3-(1-(4-((((cis-3-hydroxycyclobutyl)methyl)amino)methyl)-3,5-dimethoxyphenyl)-1H-indazol-4-yl)phenyl)-2-methoxypyridin-3-yl)methyl)-N-cyclopropyl-3-methylazetidine-3-carboxamide], the IC50 in experiment [1] fell in the range of 1 to 10 nM; against PD-1/PD-L1 interaction, 201 to 2000 nM.

With `COc1cc(-n2ncc3c(-c4cccc(-c5ccc(CN6CC(C(C)(C)O)C6)c(OC)n5)c4Cl)cccc32)ncc1CNCCO` [Example 142, 2-(1-((6-(2-chloro-3-(1-(5-(((2-hydroxyethyl)amino)methyl)-4-methoxypyridin-2-yl)-1H-indazol-4-yl)phenyl)-2-methoxypyridin-3-yl)methyl)azetidin-3-yl)propan-2-ol], the IC50 in experiment [1] was less than 1 nM; against PD-1/PD-L1 interaction, less than 200 nM.

Turning to `COc1cc(-n2ncc3c(-c4cccc(-c5ccc(CN6CC7(CNC(=O)C7)C6)c(OC)n5)c4Cl)cccc32)ncc1CNC[C@@H](C)O` [Example 110, (R)-2-((6-(2-chloro-3-(1-(5-(((2-hydroxypropyl)amino)methyl)-4-methoxypyridin-2-yl)-1H-indazol-4-yl)phenyl)-2-methoxypyridin-3-yl)methyl)-2,6-diazaspiro[3.4]octan-7-one], the figures for the concentration for half-maximal inhibition (IC50) (in experiment [1]; against PD-1/PD-L1 interaction) were less than 1 nM and 201 to 2000 nM, respectively.

For the compound `COc1cc(-n2ncc3c(-c4cccc(-c5ccc(CN[C@H]6C[C@@H](O)C6)c(OC)n5)c4Cl)cccc32)ncc1CNC[C@@H](C)O` [Example 122, cis-3-(((6-(2-chloro-3-(1-(5-((((R)-2-hydroxypropyl)amino)methyl)-4-methoxypyridin-2-yl)-1H-indazol-4-yl)phenyl)-2-methoxypyridin-3-yl)methyl)amino)cyclobutanol], the IC50 in experiment [1] is 1 to 10 nM; against PD-1/PD-L1 interaction it was 201 to 2000 nM.

For the compound `COc1cc(-n2ccc3c(-c4cccc(-c5ccc(CNCC(C)(C)C(=O)O)c(OC)n5)c4Cl)cccc32)cc(OC)c1CNC[C@@H]1CCC(=O)N1` [Example 48], the IC50 in experiment [1] was 10 to 100 nM; on PD-1/PD-L1 interaction it was more than 2000 nM.

For the compound `COc1cc(-n2ccc3c(-c4cccc(-c5ccc(CN6CC(C)(C(=O)O)C6)c(OC)n5)c4Cl)cccc32)cc(OC)c1CNC[C@@H]1CCC(=O)N1` [Example 37], the IC50 in experiment [1] was 1 to 10 nM; against PD-1/PD-L1 interaction, 201 to 2000 nM.

What is called IC50 is the concentration needed to halve the response being measured.
